Reference: ChEMBL document CHEMBL1955831, “Inhibitors of human histone deacetylase with potent activity against the African trypanosome Trypanosoma brucei” (Bioorg Med Chem Lett, 2012)
Values belong to the compound of their own block, whether it stands above or below them. Calls of active or inactive are those of the source. The calls are words filed in the database; no cut-off is given here.

Experiments:
[1] = biological target: Histone deacetylase 2 (Homo sapiens) (UniProt Q92769); assay: Inhibition of human recombinant HDAC2 expressed using baculovirus expression system using Flour- De-Lys as substrate after 3 hrs by fluorescence analysis
[2] = biological target: Histone deacetylase 4 (Homo sapiens) (UniProt P56524); assay: Inhibition of human recombinant HDAC4 expressed using baculovirus expression system using Flour- De-Lys as substrate after 3 hrs by fluorescence analysis
[3] = biological target: Histone deacetylase 9 (Homo sapiens) (UniProt Q9UKV0); assay: Inhibition of human recombinant HDAC9 expressed using baculovirus expression system using Flour- De-Lys as substrate after 3 hrs by fluorescence analysis
[4] = biological target: Histone deacetylase 3 (Homo sapiens) (UniProt O15379); assay: Inhibition of human recombinant HDAC3 expressed using baculovirus expression system using Flour- De-Lys as substrate after 3 hrs by fluorescence analysis
[5] = biological target: T1, Histone deacetylase 8 (Homo sapiens) (UniProt Q9BY41); assay: Inhibition of human recombinant HDAC8 expressed using baculovirus expression system using Flour- De-Lys as substrate after 3 hrs by fluorescence analysis
T1 sequence (whole entry): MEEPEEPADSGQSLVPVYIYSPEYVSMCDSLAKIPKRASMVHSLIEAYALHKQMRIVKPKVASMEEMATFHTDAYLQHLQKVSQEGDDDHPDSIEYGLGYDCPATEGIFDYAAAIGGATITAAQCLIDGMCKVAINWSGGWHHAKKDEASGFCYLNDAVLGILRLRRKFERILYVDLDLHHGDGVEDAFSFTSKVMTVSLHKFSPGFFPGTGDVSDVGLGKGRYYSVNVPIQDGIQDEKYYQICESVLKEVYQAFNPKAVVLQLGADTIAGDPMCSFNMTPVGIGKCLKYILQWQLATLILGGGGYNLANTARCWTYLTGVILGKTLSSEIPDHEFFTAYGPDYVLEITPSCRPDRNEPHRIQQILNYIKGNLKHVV

[6] = system: Trypanosoma brucei; assay: Antitrypanosomal activity against bloodstream Trypanosoma brucei 427 assessed as cell death at 2 ug/ml within 4 hrs by Giemsa staining-based DMRB microscopic analysis

Histone deacetylase 9 (Homo sapiens), sequence (Q9UKV0 whole entry): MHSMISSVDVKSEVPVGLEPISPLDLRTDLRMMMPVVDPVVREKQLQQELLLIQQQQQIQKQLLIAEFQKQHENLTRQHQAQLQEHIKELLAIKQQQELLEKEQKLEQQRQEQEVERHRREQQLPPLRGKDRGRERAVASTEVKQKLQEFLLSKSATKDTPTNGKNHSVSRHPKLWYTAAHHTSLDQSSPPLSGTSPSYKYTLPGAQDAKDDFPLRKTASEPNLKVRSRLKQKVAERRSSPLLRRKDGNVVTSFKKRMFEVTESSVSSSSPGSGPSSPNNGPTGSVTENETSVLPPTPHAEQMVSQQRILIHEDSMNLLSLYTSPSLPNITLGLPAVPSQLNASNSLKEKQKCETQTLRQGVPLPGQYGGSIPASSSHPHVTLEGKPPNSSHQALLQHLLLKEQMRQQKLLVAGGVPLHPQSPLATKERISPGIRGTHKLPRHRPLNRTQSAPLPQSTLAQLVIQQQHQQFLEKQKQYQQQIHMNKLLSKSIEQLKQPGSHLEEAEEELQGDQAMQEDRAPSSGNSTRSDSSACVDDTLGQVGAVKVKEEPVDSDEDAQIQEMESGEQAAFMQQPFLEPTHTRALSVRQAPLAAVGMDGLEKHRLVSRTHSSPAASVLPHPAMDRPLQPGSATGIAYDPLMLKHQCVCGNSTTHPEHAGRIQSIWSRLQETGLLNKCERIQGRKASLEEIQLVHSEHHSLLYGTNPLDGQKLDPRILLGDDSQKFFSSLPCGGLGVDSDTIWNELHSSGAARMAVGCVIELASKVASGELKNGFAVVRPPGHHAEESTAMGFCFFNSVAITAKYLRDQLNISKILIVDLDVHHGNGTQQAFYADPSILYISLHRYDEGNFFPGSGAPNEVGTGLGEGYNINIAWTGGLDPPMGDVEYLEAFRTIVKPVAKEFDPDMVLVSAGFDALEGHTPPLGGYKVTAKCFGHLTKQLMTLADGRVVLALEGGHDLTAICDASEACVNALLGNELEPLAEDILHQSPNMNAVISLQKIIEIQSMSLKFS
Histone deacetylase 3 (Homo sapiens), sequence (O15379 whole entry): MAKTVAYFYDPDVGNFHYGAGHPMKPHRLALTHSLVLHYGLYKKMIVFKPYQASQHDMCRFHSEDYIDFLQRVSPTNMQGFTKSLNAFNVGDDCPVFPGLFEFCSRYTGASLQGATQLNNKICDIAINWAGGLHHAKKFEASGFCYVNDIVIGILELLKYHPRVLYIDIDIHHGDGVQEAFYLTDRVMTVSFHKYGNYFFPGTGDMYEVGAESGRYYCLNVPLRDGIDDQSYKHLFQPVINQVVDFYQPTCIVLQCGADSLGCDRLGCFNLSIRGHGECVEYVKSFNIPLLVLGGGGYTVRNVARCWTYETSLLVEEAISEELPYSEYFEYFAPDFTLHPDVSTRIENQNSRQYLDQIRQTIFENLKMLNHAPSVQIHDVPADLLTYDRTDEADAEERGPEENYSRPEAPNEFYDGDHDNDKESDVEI
Histone deacetylase 2 (Homo sapiens), sequence (Q92769 whole entry): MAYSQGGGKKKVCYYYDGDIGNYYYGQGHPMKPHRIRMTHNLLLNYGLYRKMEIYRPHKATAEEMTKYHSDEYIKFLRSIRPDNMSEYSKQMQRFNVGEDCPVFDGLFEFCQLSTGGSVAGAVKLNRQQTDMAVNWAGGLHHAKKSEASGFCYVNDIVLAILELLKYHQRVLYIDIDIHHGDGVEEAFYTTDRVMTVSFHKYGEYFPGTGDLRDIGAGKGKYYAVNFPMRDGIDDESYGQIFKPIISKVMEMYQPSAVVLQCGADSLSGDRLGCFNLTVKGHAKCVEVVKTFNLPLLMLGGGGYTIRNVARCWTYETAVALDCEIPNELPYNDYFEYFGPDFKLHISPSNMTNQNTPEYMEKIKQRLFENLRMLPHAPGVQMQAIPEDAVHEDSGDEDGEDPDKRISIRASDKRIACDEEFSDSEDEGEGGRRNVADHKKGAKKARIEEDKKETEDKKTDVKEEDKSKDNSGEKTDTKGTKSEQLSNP
Histone deacetylase 4 (Homo sapiens), sequence (P56524 whole entry): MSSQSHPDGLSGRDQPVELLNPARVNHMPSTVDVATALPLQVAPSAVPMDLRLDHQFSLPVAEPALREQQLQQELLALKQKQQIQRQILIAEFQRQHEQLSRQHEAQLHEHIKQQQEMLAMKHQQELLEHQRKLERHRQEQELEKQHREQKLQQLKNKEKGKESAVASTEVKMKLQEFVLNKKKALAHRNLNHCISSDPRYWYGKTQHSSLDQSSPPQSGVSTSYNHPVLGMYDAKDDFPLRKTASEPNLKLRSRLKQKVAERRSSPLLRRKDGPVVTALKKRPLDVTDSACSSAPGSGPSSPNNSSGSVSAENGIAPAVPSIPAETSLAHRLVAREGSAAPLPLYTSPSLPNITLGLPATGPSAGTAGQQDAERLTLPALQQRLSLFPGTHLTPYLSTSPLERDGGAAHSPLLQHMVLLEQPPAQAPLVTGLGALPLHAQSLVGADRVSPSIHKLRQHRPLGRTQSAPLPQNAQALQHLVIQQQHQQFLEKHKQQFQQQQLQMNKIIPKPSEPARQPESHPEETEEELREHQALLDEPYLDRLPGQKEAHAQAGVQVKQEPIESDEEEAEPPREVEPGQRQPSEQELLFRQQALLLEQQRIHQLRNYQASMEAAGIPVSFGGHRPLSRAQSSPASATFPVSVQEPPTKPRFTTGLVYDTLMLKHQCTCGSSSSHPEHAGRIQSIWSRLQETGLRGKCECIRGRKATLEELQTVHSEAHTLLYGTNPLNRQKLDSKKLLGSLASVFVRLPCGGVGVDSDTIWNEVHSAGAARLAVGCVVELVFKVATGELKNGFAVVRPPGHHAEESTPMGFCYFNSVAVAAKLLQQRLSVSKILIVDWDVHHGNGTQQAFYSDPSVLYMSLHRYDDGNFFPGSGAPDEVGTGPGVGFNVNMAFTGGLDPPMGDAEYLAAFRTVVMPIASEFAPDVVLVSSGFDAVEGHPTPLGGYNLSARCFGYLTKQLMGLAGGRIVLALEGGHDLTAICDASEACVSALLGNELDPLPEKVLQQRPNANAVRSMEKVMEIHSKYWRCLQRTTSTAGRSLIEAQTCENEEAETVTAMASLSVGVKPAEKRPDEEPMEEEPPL

Compound: O=C(/C=C/c1nc2ccccc2o1)NO
- ED50 [4]: 97 nM

Compound: O=C(/C=C/c1cccc(S(=O)(=O)N2CCN(c3ccccn3)CC2)c1)NO
- ED50 [5]: 581 nM

Compound: O=C(/C=C/c1cccc(S(=O)(=O)N2CCN(c3ncccn3)CC2)c1)NO
- Activity [6]: Active

Other lines, results leading:

- ED50 [1]: 105 nM
Compound: COc1ccc(NS(=O)(=O)c2cccc(/C=C/C(=O)NO)c2)cc1

- ED50 [2]: 65 nM
Compound: O=C(/C=C/c1cccc(S(=O)(=O)Nc2cccc(F)c2)c1)NO

- ED50 [3]: 145 nM
Compound: COc1ccccc1N1CCN(S(=O)(=O)c2cccc(/C=C/C(=O)NO)c2)CC1

- ED50 [3]: 1180 nM
Compound: COc1ccc(N2CCN(S(=O)(=O)c3cccc(/C=C/C(=O)NO)c3)CC2)cc1
